{
  "source": "patent US9801850B2",
  "about": "“Antibacterial agent” (OSAKA UNIVERSITY, priority 2009, dated 2017)",
  "key": {"[1]": {"system": "MSSA ATCC29213", "assay": "MIC, broth microdilution (Example 2, Table 6)", "assay_type": "cell-based, Staphylococcus aureus"}, "[2]": {"system": "MRSA clinical isolate No. 11", "assay": "MIC, broth microdilution (Example 2, Table 6)", "assay_type": "cell-based, Staphylococcus aureus"}, "[3]": {"system": "MRSA clinical isolate No. 9", "assay": "MIC, broth microdilution (Example 2, Table 6)", "assay_type": "cell-based, Staphylococcus aureus"}, "[4]": {"system": "MSSA clinical isolate No. 3", "assay": "MIC, broth microdilution (Example 2, Table 6)", "assay_type": "cell-based, Staphylococcus aureus"}, "[5]": {"system": "MSSA clinical isolate No. 4", "assay": "MIC, broth microdilution (Example 2, Table 6)", "assay_type": "cell-based, Staphylococcus aureus"}, "[6]": {"system": "MRSA clinical isolate No. 8", "assay": "MIC, broth microdilution (Example 2, Table 6)", "assay_type": "cell-based, Staphylococcus aureus"}, "[7]": {"system": "MSSA clinical isolate No. 1", "assay": "MIC, broth microdilution (Example 2, Table 6)", "assay_type": "cell-based, Staphylococcus aureus"}, "[8]": {"system": "MSSA ATCC25923", "assay": "MIC, broth microdilution (Example 2, Table 6)", "assay_type": "cell-based, Staphylococcus aureus"}, "[9]": {"system": "MRSA clinical isolate No. 10", "assay": "MIC, broth microdilution (Example 2, Table 6)", "assay_type": "cell-based, Staphylococcus aureus"}, "[10]": {"system": "Yersinia enterocolitica ATCC9610", "assay": "Antibacterial spectrum MIC (Table 7)", "assay_type": "cell-based", "experimental": "(§1) Methicillin-susceptible Staphylococcus aureus (MSSA) NCTC8325 and methicillin-resistant Staphylococcus aureus (MRSA) ATCC43300 were used as bacteria. The bacteria of each type were cultured using Mueller-Hinton Broth (MH-broth, Difco) as a medium. Then, the minimum inhibitory concentration (MIC) of each of the EGCG derivatives was measured by a broth microdilution method in accordance with the Clinical and Laboratory Standards Institute (CLSI) guidelines (hereinafter the same).\n(§2) First, each of the EGCG derivatives was dissolved in 100% dimethyl sulfoxide (DMSO, Wako Pure Chemical Industries, Ltd.) so that the concentration thereof became 5120 μg/ml. The resultant solution was diluted with DMSO or sterile distilled water so as to prepare two-fold dilution series of antibacterial agent solutions. […] Each of these antibacterial agent solutions was dispensed to wells of a 96-well plate. The concentration of the EGCG derivative in the antibacterial agent solution dispensed to the wells was set to be 10 times as high as the final concentration. On the other hand, the bacteria were cultured in the MH-broth at 37° C. overnight, and the thus-obtained pre-culture solution was diluted with a new MH-broth so that the concentration thereof in the MH-broth became 10^−4 (10^4-fold dilution), thus preparing a bacterial culture solution of about 1×10^5 CFU/ml (CFU: Colony Forming Unit, the number of viable cells). The bacterial culture solution was further added to each well, and the mixture was cultured at 37° C. for 18 hours. The ratio (volume ratio) between the antibacterial agent solution and the bacterial culture solution added to each well was set to 1:9 (the antibacterial agent solution:the bacterial culture solution), and the volume of the mixture of them per well was set to 100 μl in total. The final concentration of the EGCG derivative in the mixture was set to 8 μg/ml to 512 μg/ml, and the number of viable cells in the mixture was set to about 1×10^5 CFU/ml. Then, after the completion of the culture, the MIC was determined. Also, the turbidity (OD600 nm) was measured using a plate reader so as to identify minor differences.\n(§3) Regarding the respective type strains shown in Tables 7 and 8 below, the MIC measurement was performed using the antibacterial agent solutions of Example 2 in the same manner as described in Section (2) of Example 1, except for the following. The antibacterial agent solutions were prepared by dissolving the EGCG derivatives of Example 2 in 100% DMSO and then diluting the resultant mixtures with sterile distilled water. The respective strains were derived from ATCC or NCTC. As Moraxella catarrhalis and Aspergillus fumigatus, clinical isolates thereof without an acquired resistance mechanism were used. For nutrient-rich bacteria, namely, Streptococcus pneumoniae ATCC49619, Streptococcus pyogenes ATCC19615, Streptococcus agalactiae ATCC13813, Moraxella catarrhalis, and Haemophilis influenzae ATCC49766, Strepto Haemo supplement (Eiken Chemical Co., Ltd.) was added to media for culturing them. The MIC measurement with respect to fungi was carried out by a broth microdilution method using a RPMI1640/MOPS (pH 7.0) medium in accordance with CLSI guidelines. About 2×10^3 cells/ml of fungi were inoculated to the medium. After the culture at 35° C. for 24 to 48 hours, the MIC was determined. Also, regarding the antibacterial agent solution of Comparative Example 2, the MIC was measured in the same manner."}, "[11]": {"system": "Haemophilis influenzae ATCC49766", "assay": "Antibacterial spectrum MIC (Table 7)", "assay_type": "cell-based", "details": "Strepto Haemo supplement", "experimental": "as §1, §2, §3"}, "[12]": {"system": "Staphylococcus epidermis ATCC14990", "assay": "Antibacterial spectrum MIC (Table 7)", "assay_type": "cell-based", "details": "Staphylococcus epidermis ATCC14990", "experimental": "as §1, §2, §3"}, "[13]": {"system": "Streptococcus agalactiae ATCC13813", "assay": "Antibacterial spectrum MIC (Table 7)", "assay_type": "cell-based", "details": "Strepto Haemo supplement", "experimental": "as §1, §2, §3"}, "[14]": {"system": "Staphylococcus aureus ATCC43300 (MRSA)", "assay": "Antibacterial spectrum MIC (Table 7)", "assay_type": "cell-based", "experimental": "as §1, §2, §3"}, "[15]": {"system": "Neisseria gonorrhoeae ATCC49226", "assay": "Antibacterial spectrum MIC (Table 7)", "assay_type": "cell-based", "experimental": "as §1, §2, §3"}, "[16]": {"system": "Enterobacter aerogenes ATCC13048", "assay": "Antibacterial spectrum MIC (Table 7)", "assay_type": "cell-based", "experimental": "as §1, §2, §3"}, "[17]": {"system": "Enterobacter cloacae ATCC13047", "assay": "Antibacterial spectrum MIC (Table 7)", "assay_type": "cell-based", "experimental": "as §1, §2, §3"}, "[18]": {"system": "Escherichia coli ATCC25922", "assay": "Antibacterial spectrum MIC (Table 7)", "assay_type": "cell-based", "experimental": "as §1, §2, §3"}, "[19]": {"system": "Serratia marcescens ATCC13880", "assay": "Antibacterial spectrum MIC (Table 7)", "assay_type": "cell-based", "experimental": "as §1, §2, §3"}, "[20]": {"system": "MRSA clinical isolate No. 6", "assay": "MIC, broth microdilution (Example 2, Table 6)", "assay_type": "cell-based, Staphylococcus aureus"}, "[21]": {"system": "S. aureus NCTC8325 (MSSA)", "assay": "MIC, broth microdilution (Example 2, Table 6)", "assay_type": "cell-based, Staphylococcus aureus", "experimental": "as §1, §2\n(§4) Each of the EGCG derivatives was dissolved in 100% DMSO so that the concentration thereof became 1280 μg/ml. The thus-obtained solutions were diluted with sterile distilled water, thus preparing antibacterial agent solutions.\n(§5) As Comparative Example 2, the same procedures as in Example 2 were performed, except that unsubstituted EGCG was used as an antibacterial agent instead of the EGCG derivatives of Example 2. Furthermore, as a control, the same procedures as in Example 2 were performed, except that sterile distilled water was used instead of the antibacterial agent solutions containing the EGCG derivatives."}, "[22]": {"system": "MRSA ATCC43300", "assay": "MIC, broth microdilution (Example 2, Table 6)", "assay_type": "cell-based, Staphylococcus aureus", "experimental": "as §1, §2, §4, §5"}, "[23]": {"system": "MSSA ATCC12600", "assay": "MIC, broth microdilution (Example 2, Table 6)", "assay_type": "cell-based, Staphylococcus aureus"}},
  "data": [
    {"smiles": "O=C(O[C@@H]1Cc2c(O)cc(O)cc2O[C@@H]1c1cc(O)c(O)c(O)c1)c1cc(O)c(O)c(O)c1", "note": "[EGCG, Epigallocatechin gallate, reference compound]", "values": [
      {"measurement": "MIC", "setting": "[1]", "value": ">128", "unit": "µg/mL"},
      {"measurement": "MIC", "setting": "[2]", "value": ">128", "unit": "µg/mL"},
      {"measurement": "MIC", "setting": "[3]", "value": ">128", "unit": "µg/mL"},
      {"measurement": "MIC", "setting": "[4]", "value": ">128", "unit": "µg/mL"},
      {"measurement": "MIC", "setting": "[5]", "value": ">128", "unit": "µg/mL"},
      {"measurement": "MIC", "setting": "[6]", "value": 128, "unit": "µg/mL"},
      {"measurement": "MIC", "setting": "[7]", "value": ">128", "unit": "µg/mL"},
      {"measurement": "MIC", "setting": "[8]", "value": ">128", "unit": "µg/mL"},
      {"measurement": "MIC", "setting": "[9]", "value": ">128", "unit": "µg/mL"},
      {"measurement": "MIC", "setting": "[10]", "value": 64, "unit": "µg/mL"},
      {"measurement": "MIC", "setting": "[11]", "value": 32, "unit": "µg/mL"},
      {"measurement": "MIC", "setting": "[12]", "value": 128, "unit": "µg/mL"},
      {"measurement": "MIC", "setting": "[13]", "value": 256, "unit": "µg/mL"},
      {"measurement": "MIC", "setting": "[14]", "value": 128, "unit": "µg/mL"},
      {"measurement": "MIC", "setting": "[15]", "value": 32, "unit": "µg/mL"},
      {"measurement": "MIC", "setting": "[16]", "value": 64, "unit": "µg/mL"},
      {"measurement": "MIC", "setting": "[17]", "value": 128, "unit": "µg/mL"},
      {"measurement": "MIC", "setting": "[18]", "value": 128, "unit": "µg/mL"},
      {"measurement": "MIC", "setting": "[19]", "value": 128, "unit": "µg/mL"},
      {"measurement": "MIC", "setting": "[20]", "value": ">128", "unit": "µg/mL"},
      {"measurement": "MIC", "setting": "[21]", "value": 128, "unit": "µg/mL"},
      {"measurement": "MIC", "setting": "[22]", "value": ">128", "unit": "µg/mL"},
      {"measurement": "MIC", "setting": "[23]", "value": ">128", "unit": "µg/mL"}
    ]}
  ]
}
